Data reported in patent publication US7875618B2, “Substituted imidazo[1,5-a]quinoxalines useful as inhibitors of phosphodiesterase 10 for the treatment of neurological and other disorders” (Wyeth, priority 2007, dated 2011).

Target: T1, human recombinant PDE10A (Homo sapiens, UniProt Q9Y233)
T1 construct: made in house; host or cells: SF21 insect cells (baculovirus)
Assay: Inhibition of human recombinant PDE10A ([3H]-cAMP SPA, Method B)
Type: biochemical
Details: read-out: PDE10 inhibition IC50 [nM] PDE10A human
Description: The gene was than inserted into a baculovirus vector, ligated with the baculovirus DNA. The enzyme-protein was expressed in SF21-cells. The enzyme was isolated from these cells by harvesting the cells by a centrifugation at 200 g to collect the cells. The cells were resuspended in 50 mM Tris-HCl/5 mM MgCl2 buffer (pH=7.4) and lysed by a sonication of the cells. The cytosolic PDE10A was obtained by a centrifugation at 48000 g for 1 h in the supernatant and stored at −70° C. PDE10 activity was determined in a one step procedure in microtiterplates. […] Nonspecific activity was tested without the enzyme. The reaction was initiated by addition of the substrate solution and was carried out at 37° C. for 30 minutes. Enzymatic activity was stopped by addition of 25 μl YSi-SPA-beads (Amersham-Pharmacia). One hour later the mixture was measured in a liquid scintillation counter for microtiterplates (Microbeta Trilux). To pipette the incubation mixture a robot Biomek (Fa. Beckman) is used. […] For determination of IC50 values the Hill-plot, 2-parameter-model, was used.

T1 sequence (Q9Y233 1-779 isoform Q9Y233-1): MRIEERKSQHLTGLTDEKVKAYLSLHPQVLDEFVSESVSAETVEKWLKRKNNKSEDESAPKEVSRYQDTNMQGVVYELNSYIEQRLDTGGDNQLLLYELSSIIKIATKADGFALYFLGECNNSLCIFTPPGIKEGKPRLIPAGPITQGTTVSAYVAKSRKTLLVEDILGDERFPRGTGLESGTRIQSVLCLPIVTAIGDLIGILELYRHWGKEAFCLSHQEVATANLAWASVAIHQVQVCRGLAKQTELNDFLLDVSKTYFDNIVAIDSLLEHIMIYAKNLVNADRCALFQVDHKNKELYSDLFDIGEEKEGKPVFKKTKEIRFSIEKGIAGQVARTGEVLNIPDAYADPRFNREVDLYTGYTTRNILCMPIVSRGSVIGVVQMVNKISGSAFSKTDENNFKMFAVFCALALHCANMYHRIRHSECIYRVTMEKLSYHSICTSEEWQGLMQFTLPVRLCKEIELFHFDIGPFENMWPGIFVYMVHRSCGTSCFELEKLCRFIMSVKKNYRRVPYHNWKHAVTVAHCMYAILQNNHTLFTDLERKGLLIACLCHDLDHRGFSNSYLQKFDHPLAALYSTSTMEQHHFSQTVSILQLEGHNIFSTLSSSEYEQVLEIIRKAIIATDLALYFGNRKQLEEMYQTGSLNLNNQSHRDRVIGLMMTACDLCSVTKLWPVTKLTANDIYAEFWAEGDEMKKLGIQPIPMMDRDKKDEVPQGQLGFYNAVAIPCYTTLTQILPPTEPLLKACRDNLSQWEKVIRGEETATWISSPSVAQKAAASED

SMILES	IC50
Cc1nc(-c2cc(C(N)=O)ccc2F)n2c1c(C)nc1ccccc12 [Example 102, 3-(3,4-dimethylimidazo[1,5-a]quinoxalin-1-yl)-4-fluorobenzamide]	10 to 100 nM
Cc1nc(F)ccc1-c1nc(C)c2c(C)nc3ccccc3n12 [Example 103, 1-(6-fluoro-2-methylpyridin-3-yl)-3,4-dimethylimidazo[1,5-a]quinoxaline]	10 to 100 nM
COc1ccc2nc(C)c3c(C)nc(-c4ccc(F)cc4Cl)n3c2c1 [Example 105, 1-(2-chloro-4-fluorophenyl)-8-methoxy-3,4-dimethylimidazo[1,5-a]quinoxaline]	≤ 10 nM
COc1ccc2nc(C)c3c(C)nc(-c4ccc(Cl)cc4C(F)(F)F)n3c2c1 [Example 106, 1-[4-chloro-2-(trifluoromethyl)phenyl]-8-methoxy-3,4-dimethylimidazo[1,5-a]quinoxaline]	10 to 100 nM
COc1ccc2nc(C)c3c(C)nc(-c4cc(Cl)ccc4C)n3c2c1 [Example 107, 1-(5-chloro-2-methylphenyl)-8-methoxy-3,4-dimethylimidazo[1,5-a]quinoxaline]	≤ 10 nM
COc1ccc2nc(C)c3c(C)nc(-c4ccc(F)cc4C)n3c2c1 [Example 108, 1-(4-fluoro-2-methylphenyl)-8-methoxy-3,4-dimethylimidazo[1,5-a]quinoxaline]	10 to 100 nM
COc1ccc2nc(C)c3c(C)nc(-c4cccc(F)c4C)n3c2c1 [Example 109, 1-(3-fluoro-2-methylphenyl)-8-methoxy-3,4-dimethylimidazo[1,5-a]quinoxaline]	≤ 10 nM
COc1ccc2nc(C)c3c(C)nc(-c4cnccc4OC)n3c2c1 [Example 110, 8-methoxy-1-(4-methoxypyridin-3-yl)-3,4-dimethylimidazo[1,5-a]quinoxaline]	10 to 100 nM
COc1ccc2nc(C)c3c(C)nc(-c4cccc(C(N)=O)c4)n3c2c1 [Example 112, 3-(8-methoxy-3,4-dimethylimidazo[1,5-a]quinoxalin-1-yl)benzamide]	≤ 10 nM
COc1ccc2nc(C)c3c(C)nc(-c4ccc(F)nc4C)n3c2c1 [Example 113, 1-(6-fluoro-2-methylpyridin-3-yl)-8-methoxy-3,4-dimethylimidazo[1,5-a]quinoxaline]	10 to 100 nM
COc1ccc2nc(C)c3c(C)nc(-c4cc(C(N)=O)ccc4F)n3c2c1 [Example 114, 4-fluoro-3-(8-methoxy-3,4-dimethylimidazo[1,5-a]quinoxalin-1-yl)benzamide]	≤ 10 nM
COc1ccc2nc(C)c3c(C)nc(-c4ccccc4C)n3c2c1 [Example 115, 8-methoxy-3,4-dimethyl-1-(2-methylphenyl)imidazo[1,5-a]quinoxaline]	≤ 10 nM
Cc1nc(F)ccc1-c1nc(C)c2c(C)nc3ccc(OC(F)(F)F)cc3n12 [Example 117, 1-(6-fluoro-2-methylpyridin-3-yl)-3,4-dimethyl-8-(trifluoromethoxy)imidazo[1,5-a]quinoxaline]	10 to 100 nM
Cc1ccccc1-c1nc(C)c2c(C)nc3ccc(OC(F)(F)F)cc3n12 [Example 118, 3,4-dimethyl-1-(2-methylphenyl)-8-(trifluoromethoxy)imidazo[1,5-a]quinoxaline]	≤ 10 nM
Cc1nc(-c2cccc(C(N)=O)c2)n2c1c(C)nc1ccc(OC(F)(F)F)cc12 [Example 120, 3-[3,4-dimethyl-8-(trifluoromethoxy)imidazo[1,5-a]quinoxalin-1-yl]benzamide]	≤ 10 nM
COc1ccncc1-c1nc(C)c2c(C)nc3ccc(C(F)(F)F)cc3n12 [Example 123, 1-(4-methoxypyridin-3-yl)-3,4-dimethyl-8-(trifluoromethyl)imidazo[1,5-a]quinoxaline]	10 to 100 nM
Cc1ccccc1-c1nc(C)c2c(C)nc3ccc(C(F)(F)F)cc3n12 [Example 125, 3,4-dimethyl-1-(2-methylphenyl)-8-(trifluoromethyl)imidazo[1,5-a]quinoxaline]	10 to 100 nM

SMILES	IC50
COc1cc2nc(C)c3c(C)nc(-c4ccccc4C)n3c2cc1Cl [Example 126, 8-chloro-7-methoxy-3,4-dimethyl-1-(2-methylphenyl)imidazo[1,5-a]quinoxaline]	≤ 10 nM
COc1cc2nc(C)c3c(C)nc(-c4ccncc4C)n3c2cc1Cl [Example 127, 8-chloro-7-methoxy-3,4-dimethyl-1-(3-methylpyridin-4-yl)imidazo[1,5-a]quinoxaline]	≤ 10 nM
COc1cc2nc(C)c3c(C)nc(-c4cnccc4C)n3c2cc1Cl [Example 128, 8-chloro-7-methoxy-3,4-dimethyl-1-(4-methylpyridin-3-yl)imidazo[1,5-a]quinoxaline]	10 to 100 nM
COc1cc2nc(C)c3c(C)nc(-c4ccccc4Cl)n3c2cc1Cl [Example 129, 8-chloro-1-(2-chlorophenyl)-7-methoxy-3,4-dimethylimidazo[1,5-a]quinoxaline]	≤ 10 nM
COc1cc2nc(C)c3c(C)nc(-c4cccnc4C)n3c2cc1Cl [Example 130, 8-chloro-7-methoxy-3,4-dimethyl-1-(2-methylpyridin-3-yl)imidazo[1,5-a]quinoxaline]	≤ 10 nM
COc1cc2nc(C)c3c(C)nc(-c4c(C)nn(C)c4C)n3c2cc1Cl [Example 131, 8-chloro-7-methoxy-3,4-dimethyl-1-(1,3,5-trimethyl-1H-pyrazol-4-yl)imidazo[1,5-a]quinoxaline]	≤ 10 nM
CCOc1cc2nc(C)c3c(C)nc(-c4ccccc4C)n3c2cc1Cl [Example 132, 8-Chloro-7-ethoxy-3,4-dimethyl-1-(2-methylphenyl)imidazo[1,5-a]quinoxaline]	10 to 100 nM
COc1cccc2c1nc(C)c1c(C)nc(-c3ccccc3C)n12 [Example 133, 6-Methoxy-3,4-dimethyl-1-(2-methylphenyl)imidazo[1,5-a]quinoxaline]	≤ 10 nM
Cc1ccc(C(N)=O)cc1-c1nc(C)c2c(C)nc3ccc(F)cc3n12 [Example 134, 3-(8-fluoro-3,4-dimethylimidazo[1,5-a]quinoxalin-1-yl)-4-methylbenzamide]	10 to 100 nM
Cc1nc(-c2ccc(F)c(C(N)=O)c2)n2c1c(C)nc1ccc(F)cc12 [Example 135, 2-fluoro-5-(8-fluoro-3,4-dimethylimidazo[1,5-a]quinoxalin-1-yl)benzamide]	10 to 100 nM
Cc1nc(-c2cc(F)cc(C(N)=O)c2)n2c1c(C)nc1ccc(F)cc12 [Example 136, 3-fluoro-5-(8-fluoro-3,4-dimethylimidazo[1,5-a]quinoxalin-1-yl)benzamide]	10 to 100 nM
Cc1nc(-c2cc(C(N)=O)ccc2F)n2c1c(C)nc1ccc(F)cc12 [Example 137, 4-fluoro-3-(8-fluoro-3,4-dimethylimidazo[1,5-a]quinoxalin-1-yl)benzamide]	10 to 100 nM
Cc1nc(F)ccc1-c1nc(C)c2c(C)nc3ccc(F)cc3n12 [Example 139, 8-fluoro-1-(6-fluoro-2-methylpyridin-3-yl)-3,4-dimethylimidazo[1,5-a]quinoxaline]	≥ 100 nM
COc1ccncc1-c1nc(C)c2c(C)nc3ccc(F)cc3n12 [Example 140, 8-fluoro-1-(4-methoxypyridin-3-yl)-3,4-dimethylimidazo[1,5-a]quinoxaline]	≥ 100 nM
Cc1nc(-c2ccncc2)n2c1c(C)nc1ccc(F)cc12 [Example 143, 8-fluoro-3,4-dimethyl-1-pyridin-4-ylimidazo[1,5-a]quinoxaline]	≥ 100 nM
Cc1nc(-c2cccnc2)n2c1c(C)nc1ccc(F)cc12 [Example 144, 8-fluoro-3,4-dimethyl-1-pyridin-3-ylimidazo[1,5-a]quinoxaline]	≥ 100 nM
CCCc1nc(C)c2c(Cl)nc3ccc(OC)cc3n12 [Intermediate B1, 4-chloro-8-methoxy-3-methyl-1-propyl-imidazo[1,5-a]quinazoline]	10 to 100 nM
